Assay results reported in ChEMBL document CHEMBL5729337, “Substituted eneoxindoles and uses thereof” (2022).
pIC50: −log10 of the molar value.

Target: Mitogen-activated protein kinase kinase kinase kinase 1 (Homo sapiens, UniProt Q92918)
Test: Biochemical Assay: The enzymatic activity of human HPK1 (MAP4K1) was monitored in a biochemical assay in the presence or absence of compounds and using a synthetic peptide substrate. An increase in phosphorylation of the peptide by HPK1 was indicative of its kinase activity.Recombinant HPK1 kinase domain produced via baculovirus infection of insect cells was obtained from Proteros (Proteros Biostructures #PR-0322) and was pre-activated in the presence of 2 mM ATP (Sigma-Aldrich, cat #GE27-2056-01) and 2 mM magnesium chloride for 16 hours at 4° C. The protein reaction mixture was then loaded to a desalting column (Thermo Fisher Scientific, Cat #89889) to remove excess ATP. HPK1 was eluted with buffer containing 20 mM Tris (2-Amino-2-(hydroxymethyl)propane-1,3-diol) pH 8.0, 150 mM NaCl, 2 mM dithiothreitol and 5% glycerol, and was frozen at −80° C. for later use. HPK1 dual phosphorylation was confirmed by mass spectrometry.

Chain of Mitogen-activated protein kinase kinase kinase kinase 1 (Q92918 whole entry, the tested form may be a part): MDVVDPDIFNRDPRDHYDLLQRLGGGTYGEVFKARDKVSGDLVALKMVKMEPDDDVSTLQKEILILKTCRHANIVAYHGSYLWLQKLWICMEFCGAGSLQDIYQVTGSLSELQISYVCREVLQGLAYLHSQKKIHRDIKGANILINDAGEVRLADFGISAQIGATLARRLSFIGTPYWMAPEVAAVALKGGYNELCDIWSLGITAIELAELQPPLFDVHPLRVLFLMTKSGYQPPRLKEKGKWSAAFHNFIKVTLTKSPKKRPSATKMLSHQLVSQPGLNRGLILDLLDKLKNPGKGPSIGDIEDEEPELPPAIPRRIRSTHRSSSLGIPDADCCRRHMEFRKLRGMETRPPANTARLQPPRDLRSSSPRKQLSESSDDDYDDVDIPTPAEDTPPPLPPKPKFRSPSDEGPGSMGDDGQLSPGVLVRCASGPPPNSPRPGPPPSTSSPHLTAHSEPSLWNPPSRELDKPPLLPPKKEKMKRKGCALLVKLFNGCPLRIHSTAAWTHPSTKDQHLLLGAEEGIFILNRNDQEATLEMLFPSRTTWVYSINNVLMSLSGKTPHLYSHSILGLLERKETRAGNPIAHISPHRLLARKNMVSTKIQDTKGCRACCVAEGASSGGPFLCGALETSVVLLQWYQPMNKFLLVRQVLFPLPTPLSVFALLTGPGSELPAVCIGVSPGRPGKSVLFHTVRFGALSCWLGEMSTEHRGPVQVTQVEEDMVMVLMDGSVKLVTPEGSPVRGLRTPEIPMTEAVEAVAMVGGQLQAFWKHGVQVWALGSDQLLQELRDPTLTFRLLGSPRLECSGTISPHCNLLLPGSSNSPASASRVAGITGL

## Cc1c(-c2cc(F)c3c(c2)/C(=C/c2cc4cnccc4[nH]2)C(=O)N3)cnc2c1NCCO2
  pIC50: 10.00
